IC50, Nav1.4/Nav1.7 and Nav1.5/Nav1.7 data for nine compounds are collected here from patent US9636418B2 (priority 2013, dated 2017).

Read-outs that look alike come from different tables or passages of the source.

As usually defined, the IC50 is the concentration at which inhibition is half-maximal.

Holding throughout (assay): cell-based
In experiment [1] the target is T1, hNav1.7 (Homo sapiens, UniProt Q15858). The following applies: IonWorks Quattro; read-out: IC50 Nav1.7. (Patch clamp records ionic current or voltage across a cell membrane.)
Experiment [2] addresses T1, hNav1.7. In kind it is cell-based. The following applies: PatchXpress, read-out: PX hNav1.7 Tonic IC50.
For the next experiment, the target named is hNav1.4 (Homo sapiens, UniProt P35499). The following applies: for IC50: PatchXpress, read-out: PX hNav1.4 Tonic IC50.
For another experiment, the target named is hNav1.5 (Homo sapiens, UniProt Q14524). The following applies: for IC50: PatchXpress, read-out: PX hNav1.5 Tonic IC50.
[3] abbreviates: * = at high concentrations compound would wash off slowly or not at all.

T1 sequence (Q15858 whole entry): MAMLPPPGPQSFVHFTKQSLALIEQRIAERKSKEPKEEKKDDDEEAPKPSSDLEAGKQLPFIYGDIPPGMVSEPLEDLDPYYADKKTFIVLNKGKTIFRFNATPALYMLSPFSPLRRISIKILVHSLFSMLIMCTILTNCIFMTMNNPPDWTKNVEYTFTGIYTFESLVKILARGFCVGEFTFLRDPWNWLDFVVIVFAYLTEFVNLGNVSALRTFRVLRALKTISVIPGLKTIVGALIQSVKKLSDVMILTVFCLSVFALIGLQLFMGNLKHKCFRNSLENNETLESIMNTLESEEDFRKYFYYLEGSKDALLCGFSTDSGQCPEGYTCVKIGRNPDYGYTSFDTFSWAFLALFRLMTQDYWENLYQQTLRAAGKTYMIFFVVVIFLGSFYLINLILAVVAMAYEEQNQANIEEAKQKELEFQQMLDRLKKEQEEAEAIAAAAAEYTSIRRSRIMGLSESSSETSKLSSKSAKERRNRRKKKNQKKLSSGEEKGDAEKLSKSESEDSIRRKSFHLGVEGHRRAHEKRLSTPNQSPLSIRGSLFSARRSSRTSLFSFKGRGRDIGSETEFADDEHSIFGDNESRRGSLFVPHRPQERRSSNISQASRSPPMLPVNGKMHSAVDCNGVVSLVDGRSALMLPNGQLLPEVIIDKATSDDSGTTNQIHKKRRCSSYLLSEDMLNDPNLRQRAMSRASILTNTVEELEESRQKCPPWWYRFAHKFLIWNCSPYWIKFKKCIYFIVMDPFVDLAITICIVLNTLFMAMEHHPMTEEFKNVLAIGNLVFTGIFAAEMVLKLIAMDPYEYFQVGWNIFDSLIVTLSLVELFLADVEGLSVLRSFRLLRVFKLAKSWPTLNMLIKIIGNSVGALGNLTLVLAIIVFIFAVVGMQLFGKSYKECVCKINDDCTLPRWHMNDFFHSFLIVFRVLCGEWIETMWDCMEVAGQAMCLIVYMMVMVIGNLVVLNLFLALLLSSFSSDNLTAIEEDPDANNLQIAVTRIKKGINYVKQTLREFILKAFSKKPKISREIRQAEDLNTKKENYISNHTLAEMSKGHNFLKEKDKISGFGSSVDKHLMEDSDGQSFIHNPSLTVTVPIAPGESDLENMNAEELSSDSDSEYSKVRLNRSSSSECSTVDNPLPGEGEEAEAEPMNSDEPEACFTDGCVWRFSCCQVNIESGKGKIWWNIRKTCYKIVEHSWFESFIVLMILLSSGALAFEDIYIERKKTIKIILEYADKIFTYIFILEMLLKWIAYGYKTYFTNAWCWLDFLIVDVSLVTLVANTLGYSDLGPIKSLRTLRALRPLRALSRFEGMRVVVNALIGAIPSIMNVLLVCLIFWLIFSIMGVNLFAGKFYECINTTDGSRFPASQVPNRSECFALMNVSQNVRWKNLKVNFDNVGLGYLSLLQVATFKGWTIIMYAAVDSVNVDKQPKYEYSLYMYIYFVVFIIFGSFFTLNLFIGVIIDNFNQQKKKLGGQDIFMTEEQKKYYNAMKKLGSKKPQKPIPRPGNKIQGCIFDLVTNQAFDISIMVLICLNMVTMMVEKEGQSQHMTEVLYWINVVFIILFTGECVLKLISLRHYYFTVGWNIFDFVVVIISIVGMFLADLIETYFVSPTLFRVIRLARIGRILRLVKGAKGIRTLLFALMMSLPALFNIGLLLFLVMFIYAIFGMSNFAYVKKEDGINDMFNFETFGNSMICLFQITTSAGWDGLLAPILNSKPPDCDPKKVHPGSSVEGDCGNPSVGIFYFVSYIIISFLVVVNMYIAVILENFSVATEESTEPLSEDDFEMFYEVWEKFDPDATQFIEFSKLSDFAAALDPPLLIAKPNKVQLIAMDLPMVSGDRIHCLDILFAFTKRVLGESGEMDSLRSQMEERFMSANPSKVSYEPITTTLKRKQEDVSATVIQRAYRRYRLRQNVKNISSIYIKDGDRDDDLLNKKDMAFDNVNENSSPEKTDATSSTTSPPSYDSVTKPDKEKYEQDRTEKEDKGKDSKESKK
hNav1.4, sequence (P35499 whole entry): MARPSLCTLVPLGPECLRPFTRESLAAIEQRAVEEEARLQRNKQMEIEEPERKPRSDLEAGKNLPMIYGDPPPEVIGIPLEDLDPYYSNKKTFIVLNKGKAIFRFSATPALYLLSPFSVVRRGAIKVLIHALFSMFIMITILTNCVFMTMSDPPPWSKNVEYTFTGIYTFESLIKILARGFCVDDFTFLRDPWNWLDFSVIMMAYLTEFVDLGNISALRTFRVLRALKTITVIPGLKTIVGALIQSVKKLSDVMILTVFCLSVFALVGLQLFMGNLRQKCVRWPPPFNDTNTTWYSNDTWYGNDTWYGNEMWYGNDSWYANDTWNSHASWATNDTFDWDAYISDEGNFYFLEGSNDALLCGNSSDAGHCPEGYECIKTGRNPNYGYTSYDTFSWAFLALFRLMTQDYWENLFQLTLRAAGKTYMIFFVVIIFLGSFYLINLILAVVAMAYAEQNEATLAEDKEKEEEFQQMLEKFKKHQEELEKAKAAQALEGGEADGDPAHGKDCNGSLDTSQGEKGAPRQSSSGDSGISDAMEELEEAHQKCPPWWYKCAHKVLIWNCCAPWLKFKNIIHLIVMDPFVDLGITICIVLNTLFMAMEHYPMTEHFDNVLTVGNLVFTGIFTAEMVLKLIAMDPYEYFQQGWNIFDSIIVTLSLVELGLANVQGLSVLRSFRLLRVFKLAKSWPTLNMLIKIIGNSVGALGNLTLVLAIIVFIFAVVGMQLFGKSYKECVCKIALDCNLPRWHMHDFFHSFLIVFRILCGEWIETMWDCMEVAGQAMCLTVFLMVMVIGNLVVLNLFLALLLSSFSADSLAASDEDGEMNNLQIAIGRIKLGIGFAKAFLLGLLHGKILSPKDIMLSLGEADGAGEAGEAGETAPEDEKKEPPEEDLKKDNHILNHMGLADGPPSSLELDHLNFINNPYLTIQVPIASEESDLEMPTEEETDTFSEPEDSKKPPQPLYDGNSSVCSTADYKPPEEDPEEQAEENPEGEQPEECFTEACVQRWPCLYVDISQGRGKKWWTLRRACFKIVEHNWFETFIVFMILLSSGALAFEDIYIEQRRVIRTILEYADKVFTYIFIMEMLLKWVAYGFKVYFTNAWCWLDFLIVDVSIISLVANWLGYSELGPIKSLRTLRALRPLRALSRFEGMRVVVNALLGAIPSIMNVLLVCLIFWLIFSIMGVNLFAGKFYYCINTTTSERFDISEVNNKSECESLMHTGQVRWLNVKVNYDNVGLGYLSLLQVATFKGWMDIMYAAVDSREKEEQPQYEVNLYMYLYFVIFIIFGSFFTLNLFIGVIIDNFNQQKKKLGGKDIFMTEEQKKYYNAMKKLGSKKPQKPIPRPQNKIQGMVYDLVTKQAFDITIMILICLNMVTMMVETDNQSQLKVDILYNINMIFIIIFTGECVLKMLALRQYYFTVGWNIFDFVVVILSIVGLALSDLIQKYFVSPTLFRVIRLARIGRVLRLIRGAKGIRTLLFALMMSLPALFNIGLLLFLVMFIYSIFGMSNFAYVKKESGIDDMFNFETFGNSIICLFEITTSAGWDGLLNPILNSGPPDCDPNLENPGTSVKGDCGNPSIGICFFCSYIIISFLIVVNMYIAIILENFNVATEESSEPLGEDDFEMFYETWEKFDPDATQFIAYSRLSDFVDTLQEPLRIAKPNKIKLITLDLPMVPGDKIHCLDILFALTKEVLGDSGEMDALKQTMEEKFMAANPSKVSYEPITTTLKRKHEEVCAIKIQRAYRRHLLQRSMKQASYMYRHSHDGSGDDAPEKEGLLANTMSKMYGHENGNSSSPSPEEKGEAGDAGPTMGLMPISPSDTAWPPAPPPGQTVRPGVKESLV

As for `CCCC[C@@H]1NC(=O)[C@H](Cc2c[nH]c3ccccc23)NC(=O)[C@H](CCCCN)NC(=O)[C@H](CCC(N)=O)NC(=O)[C@@H](NC(=O)[C@@H](N)Cc2ccc(O)cc2)CSSC[C@@H]2NC(=O)[C@@H]3CSSC[C@@H](C(=O)N[C@@H](CCCNC(=N)N)C(=O)N[C@@H](CCCCN)C(=O)N[C@H](C(=O)N[C@@H](Cc4c[nH]c5ccccc45)C(N)=O)[C@@H](C)CC)NC(=O)[C@H](Cc4c[nH]c5ccccc45)NC(=O)[C@H](CC(C)C)NC(=O)[C@H](CCCCN)NC(=O)[C@H](CSSC[C@H](NC(=O)[C@H]([C@@H](C)O)NC(=O)[C@H](Cc4c[nH]c5ccccc45)NC1=O)C(=O)N[C@@H](CC(=O)O)C(=O)N[C@@H](CO)C(=O)N[C@@H](CCCCN)C(=O)N[C@@H](CCCNC(=N)N)C(=O)N[C@@H](C)C(=O)N3)NC(=O)[C@H](CCC(=O)O)NC(=O)[C@H](CC(C)C)NC(=O)CNC(=O)[C@H](CCC(=O)O)NC2=O` [compound 294], the concentration for half-maximal inhibition (IC50) on hNav1.7 [1] amounted to 24 nM.
For `CCCC[C@@H]1NC(=O)[C@H](Cc2c[nH]c3ccccc23)NC(=O)[C@H](CCCCN)NC(=O)[C@H](CCC(N)=O)NC(=O)[C@@H](NC(=O)[C@H](Cc2ccc(O)cc2)NC(=O)[C@@H](N)CCCC)CSSC[C@@H]2NC(=O)[C@@H]3CSSC[C@@H](C(=O)N[C@@H](CCCNC(=N)N)C(=O)N[C@@H](CCCCN)C(=O)N[C@H](C(=O)N[C@H](C(N)=O)[C@@H](C)CC)[C@@H](C)CC)NC(=O)[C@H](Cc4c[nH]c5ccccc45)NC(=O)[C@H](CC(C)C)NC(=O)[C@H](CCCCN)NC(=O)[C@H](CSSC[C@H](NC(=O)[C@H]([C@@H](C)O)NC(=O)[C@H](Cc4c[nH]c5ccccc45)NC1=O)C(=O)N[C@@H](CC(=O)O)C(=O)N[C@@H](CO)C(=O)N[C@@H](CCCCN)C(=O)N[C@@H](CCCNC(=N)N)C(=O)N[C@@H](C)C(=O)N3)NC(=O)[C@H](CCCNC(=N)N)NC(=O)[C@H](CC(C)C)NC(=O)CNC(=O)[C@H](CCC(=O)O)NC2=O` [compound 370], the half-maximal inhibitory concentration (IC50) at hNav1.7 [2] (setting [3]) is 0.223 nM; at hNav1.4 (setting [3]) it was 4.6 nM; at hNav1.5 (setting [3]), 830 nM. Moreover, on hNav1.4 (ratio of PX IC50 values), the Nav1.4/Nav1.7 is on record as 21.
The like results for `CCCC[C@@H]1NC(=O)[C@H](Cc2c[nH]c3ccccc23)NC(=O)[C@H](CCCCN)NC(=O)[C@H](CCC(N)=O)NC(=O)[C@@H](NC(=O)[C@H](Cc2ccc(O)cc2)NC(=O)[C@@H](C)N)CSSC[C@@H]2NC(=O)[C@@H]3CSSC[C@@H](C(=O)N[C@@H](CCCNC(=N)N)C(=O)N[C@@H](CCCCN)C(=O)N[C@H](C(=O)N[C@H](C(N)=O)[C@@H](C)CC)[C@@H](C)CC)NC(=O)[C@H](Cc4c[nH]c5ccccc45)NC(=O)[C@H](CC(C)C)NC(=O)[C@H](CCCCN)NC(=O)[C@H](CSSC[C@H](NC(=O)[C@H]([C@@H](C)O)NC(=O)[C@H](Cc4c[nH]c5ccccc45)NC1=O)C(=O)N[C@@H](CC(=O)O)C(=O)N[C@@H](CO)C(=O)N[C@@H](CCCCN)C(=O)N[C@@H](CCCNC(=N)N)C(=O)N[C@@H](C)C(=O)N3)NC(=O)[C@H](CCCNC(=N)N)NC(=O)[C@H](CC(C)C)NC(=O)CNC(=O)[C@H](CCC(=O)O)NC2=O` [compound 372] were, in that order, 0.957 nM, 5.1 nM, 730 nM and 5.
`CCCC[C@@H]1NC(=O)[C@H](Cc2c[nH]c3ccccc23)NC(=O)[C@H](CCCCN)NC(=O)[C@H](CCC(N)=O)NC(=O)[C@@H](NC(=O)[C@@H](N)Cc2ccc(O)cc2)CSSC[C@@H]2NC(=O)[C@@H]3CSSC[C@@H](C(=O)N[C@@H](CCCNC(=N)N)C(=O)N[C@@H](CCCCN)C(=O)N[C@H](C(=O)N[C@@H](Cc4c[nH]c5ccccc45)C(N)=O)[C@@H](C)CC)NC(=O)[C@H](Cc4c[nH]c5ccccc45)NC(=O)[C@H](CC(C)C)NC(=O)[C@H](CCCCN)NC(=O)[C@H](CSSC[C@H](NC(=O)[C@H]([C@@H](C)O)NC(=O)[C@H](Cc4c[nH]c5ccccc45)NC1=O)C(=O)N[C@@H](CC(=O)O)C(=O)N[C@@H](CO)C(=O)N[C@@H](CCCCN)C(=O)N[C@@H](CCCNC(=N)N)C(=O)N[C@@H](C)C(=O)N3)NC(=O)[C@H](CCC(=O)O)NC(=O)[C@H](CC(C)C)NC(=O)CNC(=O)[C@H](CCCCN=[N+]=[N-])NC2=O` [compound 307]: the IC50 was determined as 9.08 nM on hNav1.7 [2] (tonic block), 360 nM on hNav1.4 (tonic block) and 750 nM on hNav1.5 (tonic block). Further, on hNav1.4 (ratio of PX tonic IC50 values), the Nav1.4/Nav1.7 worked out at 40. At hNav1.5 (ratio of PX tonic IC50 values), the Nav1.5/Nav1.7 was found to be 83.
With `CC[C@H](C)[C@H](NC(=O)[C@H](CCC(=O)O)NC(=O)[C@H](CCCCN)NC(=O)[C@H](CCCNC(=N)N)NC(=O)[C@@H]1CSSC[C@@H]2NC(=O)[C@H](C)NC(=O)[C@H](CCCNC(=N)N)NC(=O)[C@H](CCCCN)NC(=O)[C@H](CO)NC(=O)[C@H](CC(=O)O)NC(=O)[C@@H]3CSSC[C@H](NC(=O)[C@H](CCCNC(=N)N)NC(=O)[C@H](CC(C)C)NC(=O)CNC(=O)[C@H](CCC(=O)O)NC(=O)[C@H](CSSC[C@H](NC(=O)[C@@H](N)Cc4ccc(O)cc4)C(=O)N[C@@H](CCC(N)=O)C(=O)N[C@@H](CCCCN)C(=O)N[C@@H](Cc4c[nH]c5ccccc45)C(=O)N[C@@H](CCSC)C(=O)N[C@@H](Cc4c[nH]c5ccccc45)C(=O)N[C@@H]([C@@H](C)O)C(=O)N3)NC2=O)C(=O)N[C@@H](CCCCN)C(=O)N[C@@H](CC(C)C)C(=O)N[C@@H](Cc2c[nH]c3ccccc23)C(=O)N1)C(N)=O` [compound 69], the values for the IC50 on hNav1.7 [2] (setting [3]), at hNav1.4 (setting [3]) and at hNav1.5 (setting [3]) were 1 nM, 300 nM and 8800 nM, respectively. In addition, the Nav1.4/Nav1.7 on hNav1.4 (ratio of PX IC50 values) worked out at 300. Further, the Nav1.5/Nav1.7 on hNav1.5 (ratio of PX IC50 values) came out at 8800.
Regarding `C#CC[C@@H]1NC(=O)[C@H](CC(=O)O)NC(=O)[C@@H]2CSSC[C@@H]3NC(=O)[C@H](CCC(=O)O)NC(=O)[C@H](CC(C)C)NC(=O)CNC(=O)[C@H](CCC(=O)O)NC(=O)[C@H](CSSC[C@H](NC(=O)[C@@H](N)Cc4ccc(O)cc4)C(=O)N[C@@H](CCC(N)=O)C(=O)N[C@@H](CCCCN)C(=O)N[C@@H](Cc4c[nH]c5ccccc45)C(=O)N[C@@H](CCCC)C(=O)N[C@@H](Cc4c[nH]c5ccccc45)C(=O)N[C@@H]([C@@H](C)O)C(=O)N2)NC(=O)[C@H](CSSC[C@@H](C(=O)N[C@@H](CCCNC(=N)N)C(=O)N[C@@H](CCCCN)C(=O)N[C@@H](Cc2ccc(O)cc2)C(=O)N[C@H](C(N)=O)[C@@H](C)CC)NC(=O)[C@H](Cc2c[nH]c4ccccc24)NC(=O)[C@H](CC(C)C)NC(=O)[C@H](CCCCN)NC3=O)NC(=O)[C@H](C)NC(=O)[C@H](CCCNC(=N)N)NC(=O)[C@H](CCCCN)NC1=O` [compound 315], the IC50 on hNav1.7 [2] (tonic block) amounted to 1.28 nM; at hNav1.4 (tonic block) it was 825 nM; on hNav1.5 (tonic block), 2460 nM.
The like results for `C#CC[C@@H]1NC(=O)[C@H](CCCNC(=N)N)NC(=O)[C@H](CCCCN)NC(=O)[C@H](CO)NC(=O)[C@H](CC(=O)O)NC(=O)[C@@H]2CSSC[C@@H]3NC(=O)[C@H](CCCNC(=N)N)NC(=O)[C@H](CC(C)C)NC(=O)CNC(=O)[C@H](CCC(=O)O)NC(=O)[C@H](CSSC[C@H](NC(=O)[C@@H](N)Cc4ccc(O)cc4)C(=O)N[C@@H](CCC(N)=O)C(=O)N[C@@H](CCCCN)C(=O)N[C@@H](Cc4c[nH]c5ccccc45)C(=O)N[C@@H](CCCC)C(=O)N[C@@H](Cc4c[nH]c5ccccc45)C(=O)N[C@@H]([C@@H](C)O)C(=O)N2)NC(=O)[C@H](CSSC[C@@H](C(=O)N[C@@H](CCCNC(=N)N)C(=O)N[C@@H](CCCCN)C(=O)N[C@@H](CCC(=O)O)C(=O)N[C@H](C(N)=O)[C@@H](C)CC)NC(=O)[C@H](Cc2c[nH]c4ccccc24)NC(=O)[C@H](CC(C)C)NC(=O)[C@H](CCCCN)NC3=O)NC1=O` [compound 331] were, in that order, 0.493 nM, 105 nM and 3510 nM.
The corresponding values for `CCCC[C@@H]1NC(=O)[C@H](Cc2c[nH]c3ccccc23)NC(=O)[C@H](CCCCN)NC(=O)[C@H](CCC(N)=O)NC(=O)[C@@H](NC(=O)[C@H](Cc2ccc(O)cc2)NC(=O)[C@@H](N)CCN=[N+]=[N-])CSSC[C@@H]2NC(=O)[C@@H]3CSSC[C@@H](C(=O)N[C@@H](CCCNC(=N)N)C(=O)N[C@@H](CCCCN)C(=O)N[C@H](C(=O)N[C@@H](Cc4c[nH]c5ccccc45)C(N)=O)[C@@H](C)CC)NC(=O)[C@H](Cc4c[nH]c5ccccc45)NC(=O)[C@H](CC(C)C)NC(=O)[C@H](CCCCN)NC(=O)[C@H](CSSC[C@H](NC(=O)[C@H]([C@@H](C)O)NC(=O)[C@H](Cc4c[nH]c5ccccc45)NC1=O)C(=O)N[C@@H](CC(=O)O)C(=O)N[C@@H](CO)C(=O)N[C@@H](CCCCN)C(=O)N[C@@H](CCCNC(=N)N)C(=O)N[C@@H](C)C(=O)N3)NC(=O)[C@H](CCC(=O)O)NC(=O)[C@H](CC(C)C)NC(=O)CNC(=O)[C@H](CCC(=O)O)NC2=O` [compound 308] are 1.12 nM, 1200 nM and 3770 nM.
As for `CCCC[C@@H]1NC(=O)[C@H](Cc2c[nH]c3ccccc23)NC(=O)[C@H](CCCCN)NC(=O)[C@H](CCC(N)=O)NC(=O)[C@@H](NC(=O)[C@@H](N)Cc2ccc(O)cc2)CSSC[C@@H]2NC(=O)[C@@H]3CSSC[C@@H](C(=O)N[C@@H](CCCNC(=N)N)C(=O)N[C@@H](CCCCN)C(=O)N[C@H](C(=O)N[C@@H](Cc4c[nH]c5ccccc45)C(N)=O)[C@@H](C)CC)NC(=O)[C@H](Cc4c[nH]c5ccccc45)NC(=O)[C@H](CC(C)C)NC(=O)[C@H](CCCCN)NC(=O)[C@H](CSSC[C@H](NC(=O)[C@H]([C@@H](C)O)NC(=O)[C@H](Cc4c[nH]c5ccccc45)NC1=O)C(=O)N[C@@H](CC(=O)O)C(=O)N[C@@H](CO)C(=O)N[C@@H](CCCCN)C(=O)N[C@@H](CCCNC(=N)N)C(=O)N[C@@H](CCCCN=[N+]=[N-])C(=O)N3)NC(=O)[C@H](CCC(=O)O)NC(=O)[C@H](CC(C)C)NC(=O)CNC(=O)[C@H](CCC(=O)O)NC2=O` [compound 306], the IC50 came to 1.15 nM on hNav1.7 [2] (tonic block), 635 nM at hNav1.4 (tonic block) and 1970 nM at hNav1.5 (tonic block). For the same compound, the Nav1.4/Nav1.7 on hNav1.4 (ratio of PX tonic IC50 values) was 550.
